Reference: US20150126546A1, “Treatment of Cognitive Disorders with Certain Alpha-7 Nicotinic Acid Receptors in Combination with Acetylcholinesterase Inhibitors” (Forum Pharmaceuticals, Inc., priority 2009, published 2015)
Where a name gives a salt, the structure may show the parent alone.

Legend:
Format in all cases: in vivo
[1] = tested on: 5-month-old male Wistar rats; test: Object recognition task after scopolamine treatment; conditions: for d2 difference from zero (one-sample t-tests) / effect on scopolamine-induced object memory dysfunction (comparison with scopolamine alone): present study; for d2 difference from zero (one-sample t-tests) / Mean values (±SEM) of the indices of discrimination (d2) between the new and familiar objects / effect on scopolamine-induced object memory dysfunction (comparison with scopolamine alone): EVP-6124 0.03 mg/kg p.o., donepezil 0.1 mg/kg p.o., scopolamine 0.1 mg/kg i.p., 1 h delay; for Mean values (±SEM) of the indices of discrimination (d2) between the new and familiar objects: all 30 min before T1, n = 23
Description: The object recognition task allows the assessment of consolidation of (object) information into memory (Ennaceur and Delacour, 1988; Prickaerts et al., 1997). In this task a rat is given two trials. In the first trial the rat is put into an arena in which two identical objects are placed. Usually, a rate will inspect the two objects for a certain amount of time. After a certain delay, the rat is given a second trial. In this trial the rat is again placed in the same arena but one of the objects has been replaced by a novel object. Similar to the first trial the rat again explores the two objects. The amount of time exploring each object is recorded in order to determine whether the rat spent a different amount of time exploring the two objects. On basis of this scoring the memory performance can be determined.
All drugs were given 30 minutes before the first trial.
All experimental procedures were approved by the local ethical committee of the Maastricht University for animal experiments and met governmental guidelines. Twenty-four 5-month-old male Wistar rats (Harlan, The Netherlands) were used (average body weights: 465 g). […] The animals were individually housed in standard type 3 Makrolon cages on sawdust bedding in an air-conditioned room (about 20° C.). They were kept under a 12/12-hour light/dark cycle (lights on from 19.00 to 7.00 h) and had free access to food and water. Rats were housed in the same room as where the animals were tested. A radio, which was playing softly, provided background noise in the room. All testing was done between 9.00 and maximally 18.00 h.
EVP-6124 was dissolved in H2O. The solution was prepared daily and tested at a dose of 0.03 mg/kg p.o. (injection volume 2 ml/kg). […] Donepezil was dissolved in saline. The solution was prepared daily and tested at a dose of 0.1 mg/kg p.o. (injection volume 2 ml/kg). Administration was always 30 min before trial 1 immediately after (R)-7-chloro-N-(quinuclidin-3-yl)benzo[b]thiophene-2-carboxamide.
Subsequently donepezil, (R)-7-chloro-N-(quinuclidin-3-yl)benzo[b]thiophene-2-carboxamide and the combination of both were tested (n=8 per condition per day of testing). All rats were treated once with each dose condition. […] The experimentator was unaware of the condition/drugs being tested.
The object recognition test was performed as described elsewhere (Ennaceur and Delacour, 1988). The apparatus consisted of a circular arena, 83 cm in diameter. Half of the 40 cm high wall was made of gray polyvinyl chloride, the other half of transparent polyvinyl chloride. The light intensity was equal in the different parts of the apparatus. Two objects were placed in a symmetrical position about 10 cm away from the gray wall. Each object was available in triplicate. The objects were: 1) a cone consisting of a gray polyvinyl chloride base (maximal diameter 18 cm) with a collar on top made of brass (total height 16 cm), 2) a standard 1 l brown transparent glass bottle (diameter 10 cm, height 22 cm) filled with water, 3) a massive metal cube (10.0×5.0×7.5 cm) with two holes (diameter 1.9 cm), and 4) a massive aluminum cube with a tapering top (13.0×8.0×8.0 cm). A rat could not displace the objects. Fluorescent red tubes and a light bulb provided a constant illumination of about 20 lux on the floor of the apparatus.
A testing session comprised two trials. The duration of each trial was 3 min. During the first trial (T1) the apparatus contained two identical objects (samples). A rat was always placed in the apparatus facing the wall at the middle of the front (transparent) segment. After the first exploration period the rat was put back in its home cage.

[2] = tested on: 5-month-old male Wistar rats; test: as above; conditions: previous study; for effect on object memory deficit induced by scopolamine: scopolamine 0.1 mg/kg i.p.
[3] = tested on: mild to moderate AD patients; conditions: 0.3 or 1.0 mg/d for 28 days, in addition to donepezil or rivastigmine; domains of non-verbal learning, memory, executive function
Method: The safety and efficacy of (R)-7-chloro-N-(quinuclidin-3-yl)benzo[b]thiophene-2-carboxamide HCl salt was assessed in a Phase 1b study of 48 mild to moderate AD patients 60-80 years of age, on stable donepezil (5 or 10 mg/day) or rivastigmine (6-12 mg/day administered as a twice daily dose, i.e., 3 or 6 mg per dose).
Patients were dosed with placebo or two different doses of (R)-7-chloro-N-(quinuclidin-3-yl)benzo[b]thiophene-2-carboxamide (0.3 or 1.0 mg/d) for 28 days. Safety was evaluated by adverse events, ECG, and clinical laboratory measures. Cognitive effects were measured by CogState computerized cognitive testing and a subset of NTB scales (category fluency, Trails A and B).

| Compound | d2 difference from zero (one-sample t-tests) [1] | memory of the familiar object after 1 h delay interval ([1]; scopolamine 0.1 mg/kg i.p. alone) | Mean values (±SEM) of the indices of discrimination (d2) between the new and familiar objects [1] | effect on scopolamine-induced object memory dysfunction (comparison with scopolamine alone) [1] | effect on scopolamine-induced object memory deficit ([2]; 0.1 mg/kg donepezil) | effect on scopolamine-induced object memory deficit ([2]; 0.3 mg/kg donepezil p.o.) | cognitive function [3] | effect on object memory deficit induced by scopolamine ([2]; 0.03 mg/kg p.o.) | effect on object memory deficit induced by scopolamine ([2]; 0.3 mg/kg p.o.) |
| --- | --- | --- | --- | --- | --- | --- | --- | --- | --- |
| CN1[C@@H]2C[C@@H](OC(=O)[C@H](CO)c3ccccc3)C[C@H]1[C@@H]1O[C@@H]12 [scopolamine] | no difference | no more memory of the familiar object was found | 0.02 (0.07) |  |  |  |  |  |  |
| COc1cc2c(cc1OC)C(=O)C(CC1CCN(Cc3ccccc3)CC1)C2 (centres unmarked) [donepezil, 1-benyzl-4-[(5,6-dimethoxy-1-indanon)-2-yl]methylpiperidine monohydrochloride] | not different from zero |  | −0.02 (0.05) | did not improve the memory | had no effect | attenuated |  |  |  |
| O=C(N[C@H]1CN2CCC1CC2)c1cc2cccc(Cl)c2s1 [EVP-6124, (R)-7-chloro-N-(quinuclidin-3-yl)benzo[b]thiophene-2-carboxamide] | not different from zero |  | 0.00 (0.05) | did not improve the memory |  |  | showed an increase in cognitive function | had no effect | completely attenuated |
